This test has as its target T1, human Keap1 Kelch domain (Homo sapiens, UniProt Q14145).
T1 construct: human Keap1 Kelch domain (residue 321-609, UniProt Q14145); made in house; host or cells: Escherichia coli BL21 (DE3) pLysS, pRSET A vector
As to the kind of experiment: Heterologous competition fluorescence polarization (FP) binding assay, Cy5-Nrf2 peptide probe. The conditions noted are these: mean ± SEM of at least 3 individual measurements; Keap1 Kelch 14 nM, Cy5-Nrf2 probe 3 nM, 4% DMSO. On the procedure: The assay was performed in a 1 × HBSTET buffer (10 mM HEPES, 150 mM NaCl, 0.005% Tween20, 3 mM ethylenediaminetetraacetic acid (EDTA), 1 mM TCEP, pH = 7.4) using black flat-bottom 384-well plates (Corning Life Sciences, NY), a volume of 30 µL/well, and a final DMSO concentration of 4% or 8%. The assay plate was spun down to ascertain proper mixing and removal of potential air bubbles and incubated for 10-15 min at room temperature before measuring the FP levels on a Safire2 plate reader (Tecan, Männedorf, Switzerland). The g-factor was adjusted at each experiment so that a series of three blank wells containing probe but no Keap1 Kelch defined the baseline FP value. The Cy5-Nrf2 probe was measured at excitation/emission values of 635:670 nm. The FP values were fitted to the one-site specific binding equation: Y = Bmax × X/(Kd + X), with Bmax being the maximal FP value, X the Keap1 Kelch concentration, and Y the variable FP values. The Kd values were derived from the resulting binding saturation curve as being equal to the Keap1 Kelch concentration, where the curve is half-saturated.
The affinities between nonfluorescent small molecule Keap1 inhibitors and Keap1 Kelch were determined as Ki values in a heterologous competition FP binding assay. […] FP values were fitted to the equation Y = Bottom + (Top- Bottom)/[1 + (10^HillSlope×(log IC50-X))], where X is the logarithmic value of compound concentration. Hereby, the IC50 value was obtained, which together with the Kd value and probe and Keap1 Kelch concentrations was used to calculate the theoretical competitive inhibition constant, the Ki value.^43 Ki values are shown as mean ± SEM (standard error of mean) if based on two or more individual measurements.
T1 sequence (Q14145 321-609): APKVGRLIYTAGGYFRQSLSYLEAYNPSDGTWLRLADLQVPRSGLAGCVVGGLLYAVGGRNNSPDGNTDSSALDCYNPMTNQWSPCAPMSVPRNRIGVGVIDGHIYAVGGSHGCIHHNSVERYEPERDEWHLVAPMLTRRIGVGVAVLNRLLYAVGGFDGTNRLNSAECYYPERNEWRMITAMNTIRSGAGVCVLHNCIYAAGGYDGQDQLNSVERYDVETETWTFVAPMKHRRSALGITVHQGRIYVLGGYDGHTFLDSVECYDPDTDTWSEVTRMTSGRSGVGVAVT
On to `CCOc1ccc(S(=O)(=O)N2CCc3ccc(C(NC(=O)c4cccc5c4-c4ccccc4C5O)C(=O)O)cc3C2)cc1C#N` (stereo not shown) [Compound K32, 2-(2-((3-cyano-4-ethoxyphenyl)sulfonyl)-1,2,3,4-tetrahydroisoquinolin-7-yl)-2-(9-hydroxy-9H-fluorene-4-carboxamido)acetic acid], for which the Ki came to 590 ± 100 nM.

In the case of `CCOc1ccc(S(=O)(=O)N2CCc3ccc(C(NC(=O)c4cccc5c4-c4ccccc4C54SCCS4)C(=O)O)cc3C2)cc1C#N` (stereo not shown) [Compound K38, 2-(2-((3-cyano-4-ethoxyphenyl)sulfonyl)-1,2,3,4-tetrahydroisoquinolin-7-yl)-2-(spiro[fluorene-9,2'-[1,3]dithiolane]-4-carboxamido)acetic acid], affinity was put at a Ki of 170 ± 40 nM.

`O=C(O)CC(NC(=O)c1cccc2c1-c1ccccc1C2=O)c1ccc2c(c1)CN(S(=O)(=O)c1ccccc1)CC2` (stereo not shown) [Compound K46, 3-(9-oxo-9H-fluorene-4-carboxamido)-3-(2-(phenylsulfonyl)-1,2,3,4-tetrahydroisoquinolin-7-yl)propanoic acid] displayed a Ki of 930 ± 210 nM.

Consider `CCOc1ccc(S(=O)(=O)N2Cc3ccc(C(NC(=O)c4cccc5c4-c4ccccc4C5=O)C(=O)O)cc3C2)cc1C#N` (stereo not shown) [Compound K50, 2-(2-((3-cyano-4-ethoxyphenyl)sulfonyl)isoindolin-5-yl)-2-(9-oxo-9H-fluorene-4-carboxamido)acetic acid], for which the Ki worked out at 3600 ± 400 nM.

The values are drawn from EP4596534A1, “NONCOVALENT SMALL-MOLECULE INHIBITORS OF THE KEAP1-NRF2 INTERACTION” (University of Copenhagen, priority 2024, dated 2025).
